Results: patent US4713486A, “Novel compounds” (Beecham Group p.l.c., priority 1982, dated 1987)

How the values were obtained:
soybean lipoxygenase = target: T1, soybean lipoxygenase (Glycine max, UniProt P08170); experiment: Lipoxygenase Screen: inhibition of soybean lipoxygenase activity; format: biochemical; settings: 25° C., pH 9.0, 1000 I.U. soybean lipoxygenase, 0.017 mM arachidonic acid, 5 min preincubation; range in parentheses not explained; Example 9 as N-methylglucamine salt
T1 sequence (P08170 1-839): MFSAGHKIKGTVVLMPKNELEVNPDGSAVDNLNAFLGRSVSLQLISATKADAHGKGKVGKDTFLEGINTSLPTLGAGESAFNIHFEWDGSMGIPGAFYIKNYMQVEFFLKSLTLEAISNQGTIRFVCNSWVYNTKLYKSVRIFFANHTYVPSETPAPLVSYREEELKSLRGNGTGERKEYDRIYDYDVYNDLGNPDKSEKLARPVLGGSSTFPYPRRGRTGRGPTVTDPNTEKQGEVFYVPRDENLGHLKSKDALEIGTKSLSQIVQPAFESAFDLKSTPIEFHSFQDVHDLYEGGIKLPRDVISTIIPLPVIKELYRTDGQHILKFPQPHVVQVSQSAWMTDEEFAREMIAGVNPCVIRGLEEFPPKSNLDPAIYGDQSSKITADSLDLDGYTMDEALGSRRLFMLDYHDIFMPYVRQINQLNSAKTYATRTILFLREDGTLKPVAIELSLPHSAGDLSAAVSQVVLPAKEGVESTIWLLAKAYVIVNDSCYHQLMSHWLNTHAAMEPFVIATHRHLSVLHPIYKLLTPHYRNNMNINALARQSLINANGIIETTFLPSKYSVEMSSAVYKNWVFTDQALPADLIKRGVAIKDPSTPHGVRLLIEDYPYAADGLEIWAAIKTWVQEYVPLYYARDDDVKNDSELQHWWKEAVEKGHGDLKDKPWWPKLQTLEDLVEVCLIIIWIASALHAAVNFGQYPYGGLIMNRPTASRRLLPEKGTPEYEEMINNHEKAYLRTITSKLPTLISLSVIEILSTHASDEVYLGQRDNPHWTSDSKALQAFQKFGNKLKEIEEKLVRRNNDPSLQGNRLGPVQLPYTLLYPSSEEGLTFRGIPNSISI
Experimental: Inhibition of lipoxygenase activity was measured at 25° C. in a buffered incubation system (0.2M sodium borate, pH 9.0) comprising 1000 I.U. soybean lipoxygenase, 0.017 mM arachidonic acid, and compound (0-0.050 mM, dissolved in absolute ethanol:0.9% w/v saline, 30:70 v/v) in a total volume of 2.5 ml. Enzyme and compound were preincubated together at 25° C. for 5 minutes prior to initiation of the lipoxygenase reaction by the addition of the arachidonic acid. Lipoxygenase activity was measured as the rate of the initial increase in absorbance at 235 nm due to the formation of peroxidised forms of arachidonic acid. Inhibitory activity was measured at at least three compound concentrations and the 50% inhibitory concentration determined from the plot of % inhibition versus compound concentration.

cyclo-oxygenase = target: T2, cyclo-oxygenase (Bos taurus, UniProt O62664); experiment: Cyclo-oxygenase Screen: inhibition of cyclo-oxygenase in bovine seminal vesicle microsomes; format: biochemical; settings: 50 μM compound, pH 8.0, 37° C., 5 min preincubation, 2 min reaction, 5-15 μM arachidonic acid, read-out: Cyclooxygenase Inhibition at 50 μM
T2 construct: lyophilised bovine seminal vesicle microsomes; from tissue; host or cells: bovine seminal vesicle microsomes
T2 sequence (O62664 25-600): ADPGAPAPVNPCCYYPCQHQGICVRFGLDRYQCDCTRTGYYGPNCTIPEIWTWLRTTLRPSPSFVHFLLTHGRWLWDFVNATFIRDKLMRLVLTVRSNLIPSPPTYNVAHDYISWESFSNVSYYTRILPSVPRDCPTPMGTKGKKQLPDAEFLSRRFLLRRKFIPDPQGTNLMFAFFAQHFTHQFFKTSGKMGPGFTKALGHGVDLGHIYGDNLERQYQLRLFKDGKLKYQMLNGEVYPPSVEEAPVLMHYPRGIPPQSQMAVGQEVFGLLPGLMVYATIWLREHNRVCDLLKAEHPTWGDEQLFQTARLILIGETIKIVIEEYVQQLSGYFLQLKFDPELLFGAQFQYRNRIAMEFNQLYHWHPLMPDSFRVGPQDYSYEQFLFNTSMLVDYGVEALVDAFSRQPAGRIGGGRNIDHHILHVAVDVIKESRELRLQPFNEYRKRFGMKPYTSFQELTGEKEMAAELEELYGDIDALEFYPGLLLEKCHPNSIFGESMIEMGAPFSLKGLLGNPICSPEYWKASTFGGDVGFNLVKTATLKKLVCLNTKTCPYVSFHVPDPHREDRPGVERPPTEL
Experimental: (2) Cyclo-oxygenase Screen
The inhibition of cyclo-oxygenase was measured in a buffered incubation (0.2M Tris-HCI, pH 8.0 containing 1 mM ethylene diaminetetraacetic acid) comprising 0.96 mg lyophilised bovine seminal vesicle microsomes, 5-15 μM arachidonic acid containing 0.2 μCi [1--^14 C] arachidonic acid, 2 mM glutathione, […], 1 μM haemoglobin and compound (0-0.05 mM in 5 μl dimethylsulphoxide or absolute ethanol) in a total volume of 2.0 ml. Compounds were preincubated with the incubation constitutents for 5 min at 37° C. before the reaction was started by the addition of the arachidonic acid. The reaction was continued at 37° C. for 2 min, then stopped by placing the incubations on ice and the addition of 1.2 ml 0.2M citric acid. Unmetabolised substrate and prostaglandin products were extracted in ethyl acetate (2×4 ml), the combined extracts washed with 0.8 ml water, and separated by thin-layer chromatography (Kieselgel GF254 plates in ethyl acetate:acetone:glacial acetate acid, 90:10:1, v/v). Recovery was 65-80%. The regions on the thin-layer chromatography plate that chromatographed with authentic arachidonic acid or prostaglandins E2 and F2 α (Rf 's 0.70. 0.28 and 0.16 respectively) were scraped and the radioactivity in each determined by liquid scintillation counting with a correction for quenching being made by the external standard-channels ratio method. Inhibition of cyclo-oxygenase activity was calculated from the decrease in prostaglandin formation. Each compound concentration was tested in triplicate and the 50% inhibitory concentration, if determined, was calculated by linear regression from the inhibitory data at, at least three different compound concentrations.

| SMILES | IC50 (soybean lipoxygenase) | inhibition at 50 µM (cyclo-oxygenase) |
| --- | --- | --- |
| CCCCCCCCCCCC#Cc1ccc(/C=C/C(=O)OC)cc1 [Example 4, Methyl 4-(1-tridecynyl)cinnamate] | 142 µM |  |
| CCCCCCCCCCCC#Cc1ccc(/C=C/C(=O)O)cc1 [Example 9, 4-(1-Tridecynyl)cinnamic acid] | 272 µM |  |
| CCCCCCCCCCCC#Cc1ccccc1/C=C/C(=O)O [Example 12] | 85.7 µM | 86.5% |
| CCCCCCCCCCCC#Cc1cccc(/C=C/C(=O)O)c1 [Example 13] |  | 79.8% |
| CCCCCCCCCCC/C=C\c1ccc(/C=C/C(=O)OC)cc1 [Example 15, Methyl 4-[(Z)-1-tridecenyl]cinnamate] | 230 µM |  |
| CCCCCCCCCCC/C=C/c1ccc(/C=C/C(=O)O)cc1 [Example 24, 4-[(E)-1-Tridecenyl]cinnamic acid] | 30 µM | 52% |
| CCCCCCCCCCC/C=C\c1ccc(/C=C/C(=O)O)cc1 [Example 25] | 35.9 µM | 25.6% |
| CCCCCCCCC/C=C/c1ccc(/C=C/C(=O)O)cc1 [Example 26] | 52.3 µM | 52% |
| CCCCCCCCC/C=C\c1ccc(/C=C/C(=O)O)cc1 [Example 27] | 46.6 µM | 70.5% |
| CCCCCCCCCCCCC/C=C\c1ccc(/C=C/C(=O)O)cc1 [Example 29] |  | 66.5% |
| CCCCCCCCCCC/C=C\c1ccccc1/C=C/C(=O)O [Example 30] | 23.2 µM | 26% |
| CCCCCCCCCCC/C=C\c1cccc(/C=C/C(=O)O)c1 [Example 31] |  | 91% |
| CCCCCCCCCCC/C=C\c1ccc(CCC(=O)O)cc1 [Example 40, 3-{4-[(Z)-1-Tridecenyl]phenyl}propanoic acid] |  | 67% |
| CCCCCCCCCCC/C=C/c1ccc(CCC(=O)O)cc1 [Example 41, 3-{4-[(E)-1-Tridecenyl]phenyl}propanoic acid] |  | 40% |
| CCCCCCCCCCCC#Cc1ccccc1CCC(=O)O [Example 42, 3[2-(1-Tridecynyl)phenyl]propanoic acid] | 20 µM | 80% |
| CCCCCCCCCCC/C=C\c1ccc(OCC(=O)O)cc1 [Example 89] | 124 µM | 51% |
| CCCCCCCCCC/C=C\c1ccc(OCCC(=O)O)cc1 [Example 90] | 75.3 µM |  |

More lines, now with the values ahead:

| IC50 (soybean lipoxygenase) | inhibition at 50 µM (cyclo-oxygenase) | SMILES |
| --- | --- | --- |
| 18.4 µM | 62.7% | CCCCCCCCCCC/C=C\c1ccccc1CCC(=O)O [Example 43, 3-{2-[(Z)-1-Tridecenyl]phenyl}propanoic acid] |
| 55.4 µM |  | CCCCCCCCCCC/C=C\c1ccccc1OCCCC(=O)OCC [Example 55, (Z) Ethyl 4-[2-(1-tridecenyl)phenoxy)-butanoate] |
|  | 92.4% | CCCCCCCCCCC/C=C\c1ccccc1OCC(=O)O [Example 60, (Z) 2-[2-(1-tridecenyl)-phenoxy]ethanoic acid] |
|  | 78.9% | CCCCCCCCCCC/C=C\c1ccccc1OCCC(=O)O [Example 61, (Z) 3-[2-(1-tridecenyl)phenoxy]-propanoic acid] |
| 4.2 µM | 67% | CCCCCCCCCCC/C=C\c1ccccc1OCCCC(=O)O [Example 62, (Z) 4-[2-(1-tridecenyl)phenoxy]-butanoic acid] |
|  | 72% | CCCCCCCC/C=C\c1ccccc1OCCCC(=O)O [Example 82] |
|  | 64% | CCCCCCCCCCC/C=C/c1ccccc1OCCCC(=O)O [Example 85] |
|  | 67% | CCCCCCCCCCC/C=C/c1ccccc1OCCCCC(=O)O [Example 87] |
| 42.8 µM |  | CCCCCCCCC/C=C\c1ccc(OCCCC(=O)O)cc1 [Example 92] |
